Reference: the supplement of paper PMC11451515

System: SEM cells
Assay: cell viability relative to DMSO control; higher = less cytotoxic
Details: 48 h
Procedure, shortened: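 Before seeding, each leukemia line was adapted for at least four passages in each medium. NOMO1 or SEM cells (500 cells/well) and P12-Ichikawa cells (1000 cells/well) went into 1536-well plates at 5 μl, then received library compounds in DMSO by pin dosing across 11 threefold concentrations, 47 μM to 0.79 nM. Readout was CellTiter-Glo One luminescence after 48 h at 37°C, and viability is given as a per-plate percentage of DMSO wells, with cell-free wells as background.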

[1] = HPLM + 10% dialyzed FBS, 0.000781 µM
[2] = HPLM + 10% dialyzed FBS, 0.00234 µM
[3] = HPLM + 10% dialyzed FBS, 0.00702 µM
[4] = HPLM + 10% dialyzed FBS, 0.0211 µM
[5] = HPLM + 10% dialyzed FBS, 0.0632 µM
[6] = HPLM + 10% dialyzed FBS, 0.19 µM
[7] = HPLM + 10% dialyzed FBS, 0.569 µM
[8] = HPLM + 10% dialyzed FBS, 1.71 µM
[9] = HPLM + 10% dialyzed FBS, 5.12 µM
[10] = HPLM + 10% dialyzed FBS, 15.4 µM
[11] = HPLM + 10% dialyzed FBS, 46.1 µM
[12] = RPMI 5 mM glucose + 10% FBS, 0.000781 µM
[13] = RPMI 5 mM glucose + 10% FBS, 0.00234 µM
[14] = RPMI 5 mM glucose + 10% FBS, 0.00702 µM
[15] = RPMI 5 mM glucose + 10% FBS, 0.0211 µM
[16] = RPMI 5 mM glucose + 10% FBS, 0.0632 µM
[17] = RPMI 5 mM glucose + 10% FBS, 0.19 µM
[18] = RPMI 5 mM glucose + 10% FBS, 0.569 µM
[19] = RPMI 5 mM glucose + 10% FBS, 1.71 µM
[20] = RPMI 5 mM glucose + 10% FBS, 5.12 µM
[21] = RPMI 5 mM glucose + 10% FBS, 15.4 µM
[22] = RPMI 5 mM glucose + 10% FBS, 46.1 µM
[23] = RPMI 5 mM glucose + 10% dialyzed FBS, 0.000781 µM
[24] = RPMI 5 mM glucose + 10% dialyzed FBS, 0.00234 µM
[25] = RPMI 5 mM glucose + 10% dialyzed FBS, 0.00702 µM
[26] = RPMI 5 mM glucose + 10% dialyzed FBS, 0.0211 µM
[27] = RPMI 5 mM glucose + 10% dialyzed FBS, 0.0632 µM
[28] = RPMI 5 mM glucose + 10% dialyzed FBS, 0.19 µM
[29] = RPMI 5 mM glucose + 10% dialyzed FBS, 0.569 µM
[30] = RPMI 5 mM glucose + 10% dialyzed FBS, 1.71 µM
[31] = RPMI 5 mM glucose + 10% dialyzed FBS, 5.12 µM
[32] = RPMI 5 mM glucose + 10% dialyzed FBS, 15.4 µM
[33] = RPMI 5 mM glucose + 10% dialyzed FBS, 46.1 µM

| Structure (SMILES) | cell viability [1] | cell viability [2] | cell viability [3] | cell viability [4] | cell viability [5] | cell viability [6] | cell viability [7] | cell viability [8] | cell viability [9] | cell viability [10] | cell viability [11] | cell viability [12] | cell viability [13] | cell viability [14] | cell viability [15] | cell viability [16] | cell viability [17] | cell viability [18] | cell viability [19] | cell viability [20] | cell viability [21] | cell viability [22] | cell viability [23] | cell viability [24] | cell viability [25] | cell viability [26] | cell viability [27] | cell viability [28] | cell viability [29] | cell viability [30] | cell viability [31] | cell viability [32] | cell viability [33] |
| --- | --- | --- | --- | --- | --- | --- | --- | --- | --- | --- | --- | --- | --- | --- | --- | --- | --- | --- | --- | --- | --- | --- | --- | --- | --- | --- | --- | --- | --- | --- | --- | --- | --- |
| C[Se]CCC(N)C(=O)O (stereo not given) | 50.5% | 87.2% | 86.1% | 94.7% | 75.6% | 71.3% | 82.8% | 71.5% | 86.4% | 78.1% | 72% | 65.1% | 83.9% | 107% | 95.4% | 89.8% | 95% | 85.9% | 88.5% | 103% | 100% | 98.1% | 51.5% | 100% | 96.6% | 94.4% | 73.1% | 101% | 90.4% | 84.1% | 94.2% | 100% | 88.7% |
| O=C(C1CCCCC1)N1CC(=O)N2CCc3ccccc3C2C1 (stereo not given) | 90.6% | 98.8% | 117% | 108% | 113% | 96% | 97.1% | 86.1% | 78.2% | 84.1% | 75.8% | 99.9% | 109% | 126% | 105% | 116% | 95.8% | 91.6% | 74.3% | 66.7% | 75.1% | 78.4% | 106% | 110% | 147% | 99.1% | 133% | 132% | 103% | 77.9% | 75% | 74.8% | 73.1% |
| COc1ccc2cccc(CCNC(C)=O)c2c1 | 105% | 104% | 107% | 111% | 109% | 97.6% | 112% | 114% | 109% | 49.2% | 105% | 110% | 83.4% | 107% | 100% | 105% | 90% | 109% | 106% | 110% | 40.7% | 95% | 107% | 106% | 101% | 111% | 120% | 94.8% | 94.7% | 104% | 124% | 37.4% | 101% |
| OC1=C(C=CC=C1)C2=CC=C(C=C2)C3=CSC4=C3C(=C(/C#N)C(=O)N4)/O | 114% | 123% | 131% | 129% | 120% | 132% | 124% | 113% | 96.6% | 113% | 103% | 111% | 109% | 118% | 112% | 105% | 90.5% | 98.6% | 112% | 87.4% | 96.7% | 90.9% | 113% | 117% | 124% | 133% | 121% | 126% | 115% | 117% | 104% | 110% | 100% |
| COC1=CC=C(C=C1)C/2=C/OC3=CC(=CC=C3C2=O)O | 116% | 113% | 113% | 114% | 123% | 109% | 114% | 122% | 130% | 115% | 136% | 117% | 124% | 136% | 109% | 133% | 117% | 98.9% | 106% | 143% | 122% | 145% | 124% | 139% | 112% | 110% | 115% | 120% | 122% | 121% | 133% | 131% | 142% |
| O=P(O)(O)C(O)(Cc1cccnc1)P(=O)(O)[O][Na] (stereo not given) | 83% | 67.3% | 100% | 21.8% | 102% | 111% | 104% | 108% | 111% | 107% | 116% | 89.6% | 51.7% | 91% | 14.2% | 95.7% | 100% | 90.3% | 96.8% | 110% | 100% | 112% | 96.1% | 52.9% | 92.7% | 22.1% | 121% | 116% | 113% | 102% | 118% | 108% | 123% |
| O=C(c1ccc(F)cc1)C1CCN(CCn2c(=O)[nH]c3ccccc3c2=O)CC1 | 97.6% | 103% | 112% | 101% | 101% | 98.5% | 119% | 109% | 104% | 95.7% | 93% | 118% | 121% | 126% | 126% | 106% | 120% | 120% | 119% | 119% | 125% | 116% | – | – | – | – | – | – | – | – | – | – | – |
